The values below come from ChEMBL document CHEMBL5154863, “Design and synthesis of quinolinium-based derivatives targeting FtsZ for antibacterial evaluation and mechanistic study” (Eur J Med Chem, 2022).

Activity calls are given as the source filed them.

Data set [1] deals with Enterococcus faecium. The data set can be described thus: Antibacterial activity against vancomycin-resistant Enterococcus faecium clinical isolate assessed as inhibition of bacterial growth incubated for 20 to 24 hrs by broth micro dilution method. It is filed as functional. Conditions: time 20-24 hrs.
Data set [2] deals with T1, Cell division protein FtsZ (Staphylococcus aureus) (UniProt P0A031).
T1 sequence (whole entry): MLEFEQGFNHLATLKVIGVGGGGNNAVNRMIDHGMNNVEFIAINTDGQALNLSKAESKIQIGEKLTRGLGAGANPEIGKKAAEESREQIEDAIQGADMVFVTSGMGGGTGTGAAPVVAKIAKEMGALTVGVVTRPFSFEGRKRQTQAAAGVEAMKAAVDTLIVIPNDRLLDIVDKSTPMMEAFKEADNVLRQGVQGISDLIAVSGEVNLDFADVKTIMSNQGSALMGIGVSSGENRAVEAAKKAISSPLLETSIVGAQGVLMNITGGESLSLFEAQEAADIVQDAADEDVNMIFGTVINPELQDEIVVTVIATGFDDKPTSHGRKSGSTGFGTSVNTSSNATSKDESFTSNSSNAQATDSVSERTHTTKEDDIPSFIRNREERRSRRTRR
The experiment in a line: Binding affinity to Staphylococcus aureus FtsZ assessed as decrease in beta turn structure at 8 ug/ml incubated for 30 mins by circular dichroism method (reference value: 17.4 %). Further details: scale not given: the % may be the effect or the level left. Conditions: dose 8.0 µg/ml.

For data set [3], the system named is Bacillus subtilis. The data set can be described thus: Induction of morphological changes in Bacillus subtilis CMCC (B) 63501 assessed as elongation of bacterial cell at 0.5 times MIC for 4 hrs (reference value: 3 to 5 um) by microscopic analysis. The class given is functional.
Data set [4] relates to Escherichia coli. The experiment in a line: Antibacterial activity against Escherichia coli ATCC 25922 assessed as inhibition of bacterial growth incubated for 20 to 24 hrs by broth micro dilution method. It is filed as functional. To be noted: time 20-24 hrs.
Data set [5] can be described thus: Cytotoxicity against human HK-2 cells incubated for 48 hrs by MTT assay. The class given is toxicity, cell-based. In general terms: Formazan colour is commonly taken as a measure of viable cells.
Data set [6] in a line: Ratio of MBC for bactericidal activity against Enterococcus faecium ATCC 700221 to MIC for antibacterial activity against Enterococcus faecium ATCC 700221. The class given is functional.
For data set [7], the system named is Pseudomonas aeruginosa. The data set can be described thus: Antibacterial activity against […] Pseudomonas aeruginosa ATCC 27853 assessed as inhibition of bacterial growth incubated for 20 to 24 hrs by broth micro dilution method. The class given is functional. To be noted: time 20-24 hrs.
Data set [8] has as its target T1, Cell division protein FtsZ (Staphylococcus aureus). The experiment in a line: Induction of Staphylococcus aureus FtsZ polymerization expressed in Escherichia coli BL21 (DE3) assessed as increase in absorbance at 2 to 8 ug/ml by microplate reader method. To be noted: dose 2-8 µg/ml.
The subject of data set [9] is Enterococcus faecium. The experiment in a line: Antibacterial activity against vancomycin resistant Enterococcus faecium ATCC 700221 assessed as inhibition of bacterial growth incubated for 20 to 24 hrs by broth micro dilution method. It is filed as functional. Conditions: time 20-24 hrs.
Data set [10] concerns Staphylococcus aureus. The data set can be described thus: Antibacterial activity against methicillin-resistant Staphylococcus aureus ATCC 43300 assessed as inhibition of bacterial growth incubated for 20 to 24 hrs by broth micro dilution method. The class given is functional. To be noted: time 20-24 hrs.
Data set [11] relates to Staphylococcus aureus. The data set can be described thus: Bactericidal activity against Staphylococcus aureus ATCC 43300 assessed as inhibition of bacterial growth incubated for 24 hrs by resazurin dye based microtiter plate assay. The class given is functional. (The colour change of resazurin is a common sign of viable cells or microbes.)
For data set [12], the target named is T1, Cell division protein FtsZ (Staphylococcus aureus). The data set can be described thus: Binding affinity to Staphylococcus aureus FtsZ assessed as decrease in other structure at 8 ug/ml for 30 mins by circular dichroism method (reference value: 34.5 %). Set-up: scale not given: the % may be the effect or the level left. Conditions: dose 8.0 µg/ml. For orientation: Circular dichroism is the unequal absorption of left and right circularly polarised light.

The nature of data set [13]: Ratio of MBC for bactericidal activity against Staphylococcus aureus ATCC 43300 to MIC for antibacterial activity against Staphylococcus aureus ATCC 43300. It is filed as functional.

For orientation: MIC means the lowest concentration found to suppress growth. As a reminder, the IC50 is the midpoint of a concentration-inhibition curve. The term MBC denotes the smallest concentration meeting the test's criterion for killing. Turning to `CC1CCN(c2cc(/C=C/c3ccc(N(C)C)cc3)[n+](C)c3ccccc23)CC1.[I-]`, the MIC in data set [1] was 4 mg/L; in data set [4], 8 mg/L; in data set [7], greater than 64 mg/L; in data set [9], 1 mg/L; in data set [10] it was 1 mg/L. Also, the figures for the Activity in data set [2], in data set [3] and in [12] were 15.5%, 70 um and 15.1%, respectively. In data set [5], this molecule returned a 50% inhibitory concentration (IC50) at 48 h of 9.42 mg/L. Besides, the Ratio is 4 in [6] and greater than 4 in data set [13]. Besides, the outcome in data set [8] was Active. Besides, the minimal bactericidal concentration (MBC) in data set [11] was 8 mg/L.
